Values after ≈ are worked out from the molar mass of the structure shown. Active and inactive are the calls of the source. The rule behind the calls is not given here.
Assays:
[1] = Cytotoxicity against human C8166 cells after 5 to 7 days by MTT-formazan method; format: cell-based; conditions: read-out: TC50 (the source's name)
[2] = Cytotoxicity against human HeLa Ohio cells assessed as maximum non-toxic dose after 24 hrs by neutral red staining; format: cell-based; conditions: read-out: Activity
[3] = system: Human immunodeficiency virus 1; assay: Antiviral activity against HIV1 3B replication in human C8166 cells at 20 ug/ml after 5 to 7 days by MTT-formazan method; format: functional
rhinovirus A1B [4] = assay: Antiviral activity against HRV1B replication in human Hela Ohio cells assessed as virus-induced cytopathic effect at 50 ug/ml after 24 hrs at 33 degC by light microscopy; format: functional, Human rhinovirus 1B
Sindbis virus [5] = assay: Antiviral activity against Sindbis virus replication in human HelaS3 cells assessed as virus-induced cytopathic effect at 20 ug/ml after 24 hrs at 37 degC by light microscopy; format: functional
[6] = target: Human immunodeficiency virus type 1 reverse transcriptase (Human immunodeficiency virus 1) (UniProt Q72547); assay: Inhibition of HIV1 reverse transcriptase assessed as [3H]dTTP incorporation up to 50 ug/ml by liquid scintillation counting
[7] = Cytotoxicity against human HeLaS3 cells assessed as maximum non-toxic dose after 24 hrs by neutral red staining; format: cell-based, HeLa S3; conditions: read-out: Activity
[8] = system: Human immunodeficiency virus 1; assay: Antiviral activity against HIV1 3B replication in human C8166 cells at 100 ug/ml after 5 to 7 days by MTT-formazan method; format: functional
[9] = system: Human immunodeficiency virus 1; assay: Antiviral activity against HIV1 3B replication in human C8166 cells at 8 ug/ml after 5 to 7 days by MTT-formazan method; format: functional
[10] = system: Human immunodeficiency virus 1; assay: Antiviral activity against HIV1 3B replication in human C8166 cells at 40 ug/ml after 5 to 7 days by MTT-formazan method; format: functional
rhinovirus A1B [11] = assay: Antiviral activity against HRV1B replication in human Hela Ohio cells assessed as virus-induced cytopathic effect at 20 ug/ml after 24 hrs at 33 degC by light microscopy; format: functional, Human rhinovirus 1B
[12] = system: Human immunodeficiency virus 1; assay: Antiviral activity against HIV1 3B replication in human C8166 cells at 4 ug/ml after 5 to 7 days by MTT-formazan method; format: functional
[13] = system: Human immunodeficiency virus 1; assay: Antiviral activity against HIV1 3B replication in human C8166 cells at 0.8 ug/ml after 5 to 7 days by MTT-formazan method; format: functional
Sindbis virus [14] = assay: Antiviral activity against Sindbis virus replication in human HelaS3 cells assessed as virus-induced cytopathic effect at 50 ug/ml after 24 hrs at 37 degC by light microscopy; format: functional
rhinovirus A1B [15] = assay: Antiviral activity against HRV1B replication in human Hela Ohio cells assessed as inhibition of virus-induced cytopathic effect at 4 ug/ml after 24 hrs at 33 degC by light microscopy; format: functional, Human rhinovirus 1B; conditions: Rhinovirus A
Sindbis virus [16] = assay: Antiviral activity against Sindbis virus replication in human HelaS3 cells assessed as virus-induced cytopathic effect at 4 ug/ml after 24 hrs at 37 degC by light microscopy; format: functional
rhinovirus A1B [17] = assay: Antiviral activity against HRV1B replication in human Hela Ohio cells assessed as inhibition of virus-induced cytopathic effect at 0.8 ug/ml after 24 hrs at 33 degC by light microscopy; format: functional, organism-based; conditions: Human rhinovirus 1B
[18] = system: Human immunodeficiency virus 1; assay: Antiviral activity against HIV1 3B replication in human C8166 cells at 100 uM after 5 to 7 days by MTT-formazan method; format: functional
[19] = system: Human immunodeficiency virus 1; assay: Antiviral activity against HIV1 3B replication in human C8166 cells at 0.016 ug/ml after 5 to 7 days by MTT-formazan method; format: functional

Structure (SMILES)	CC50 [1]	MNTC at 24 h [2]	Activity [3]	Activity (rhinovirus A1B [4])	Activity (Sindbis virus [5])	Activity [6]	MNTC at 24 h [7]	Activity [8]	Activity [9]	Activity [10]	Activity (rhinovirus A1B [11])	Activity [12]	Activity [13]	Activity (Sindbis virus [14])	inhibition at 4 µg/mL (rhinovirus A1B [15])	Activity (Sindbis virus [16])	Activity (rhinovirus A1B [17])	Activity [18]	Activity [19]
C[C@@H]1CC[C@]2(C(=O)O)CC[C@]3(C)C(=CC[C@@H]4[C@@]5(C)C[C@@H](O)[C@H](O)[C@@](C)(COC(=O)/C=C/c6ccc(O)cc6)[C@@H]5CC[C@]43C)[C@@H]2[C@]1(C)O	30 µg/mL (≈ 46.1 µM)	50 µg/mL	0%	100%	100%	inactive	20 µg/mL	0%											
C[C@@H]1CC[C@]2(C(=O)O)CC[C@]3(C)C(=CC[C@@H]4[C@@]5(C)C[C@@H](O)[C@@H](O)C(C)(C)[C@@H]5CC[C@]43C)[C@@H]2[C@]1(C)O [EUSCAPHIC ACID]	20 µg/mL (≈ 40.9 µM)	50 µg/mL		100%	100%	inactive	20 µg/mL		1%	0%									
C[C@@H]1CC[C@]2(C(=O)O)CC[C@]3(C)C(=CC[C@@H]4[C@@]5(C)C[C@@H](O)[C@H](O)[C@@](C)(COC(=O)/C=C\c6ccc(O)cc6)[C@@H]5CC[C@]43C)[C@@H]2[C@]1(C)O	50 µg/mL (≈ 76.8 µM)	20 µg/mL	0%		100%	inactive	20 µg/mL	0%			100%								
C[C@@H]1CC[C@]2(C(=O)O)CC[C@]3(C)C(=CC[C@@H]4[C@@]5(C)CC[C@H](OC(=O)/C=C/c6ccc(O)cc6)[C@@](C)(CO)[C@@H]5CC[C@]43C)[C@@H]2[C@]1(C)O	30 µg/mL (≈ 47.3 µM)	20 µg/mL	0%		100%	inactive	20 µg/mL	0%			100%								
C[C@@H]1CC[C@]2(C(=O)O)CC[C@]3(C)C(=CC[C@@H]4[C@@]5(C)CC[C@H](O)C(C)(C)[C@@H]5[C@H](O)C[C@]43C)[C@@H]2[C@]1(C)O	2 µg/mL (≈ 4.09 µM)	20 µg/mL			100%	inactive	20 µg/mL				100%	0%	1%						
C[C@@H]1CC[C@]2(C(=O)O)CC[C@]3(C)C(=CC[C@@H]4[C@@]5(C)C[C@@H](O)[C@H](O)[C@@](C)(CO)[C@@H]5CC[C@]43C)[C@@H]2[C@]1(C)O	20 µg/mL (≈ 39.6 µM)	50 µg/mL		100%		inactive	50 µg/mL		1%	0%				100%					
C[C@@H]1CC[C@]2(C(=O)O)CC[C@]3(C)C(=CC[C@@H]4[C@@]5(C)C[C@@H](O)[C@H](OC(=O)/C=C/c6ccc(O)c(O)c6)C(C)(C)[C@@H]5CC[C@]43C)[C@@H]2[C@]1(C)O	10 µg/mL (≈ 15.4 µM)	20 µg/mL				inactive	4 µg/mL				50%	1%			< 25%	100%	inactive		
Cc1cn([C@H]2C[C@H](N=[N+]=[N-])[C@@H](CO)O2)c(=O)[nH]c1=O [ZIDOVUDINE]	> 1000 µg/mL																	100%	49%
